{
  "source": "patent EP1351977B1",
  "about": "“ANTIMICROBIAL PSEUDOPEPTIDES” (INSTITUT NATIONAL DE LA RECHERCHE AGRONOMIQUE (INRA), priority 2001, dated 2004)",
  "assay_type_in_all_cases": "cell-based",
  "key": {"Klebsiella pneumoniae": {"tested_on": "Klebsiella pneumoniae", "test": "Bacterial growth inhibition test in Petri dish (solid medium), MIC", "conditions": "MIC extrapolated from inhibition diameter vs log10 concentration"}, "Pseudomonas fluorescens": {"tested_on": "Pseudomonas fluorescens", "test": "Bacterial growth inhibition test in Petri dish (solid medium), MIC", "conditions": "MIC extrapolated from inhibition diameter vs log10 concentration"}, "Septoria tritici sp": {"tested_on": "Septoria tritici sp", "test": "Antifungal growth inhibition test in liquid medium"}, "Pseudomonas aeruginosa": {"tested_on": "Pseudomonas aeruginosa", "test": "Bacterial growth inhibition test in microplates (liquid medium), MIC, nosocomial bacteria", "conditions": "microplate test, TSB, 24h; nosocomial strain", "experimental": "(§1) Deux tests ont été utilisés pour mesurer l'activité antibactérienne des pseudopeptides, un test d'inhibition de la croissance bactérienne en microplaques (de 96 puits) en milieu liquide et un test d'inhibition de la croissance bactérienne en boîte de Pétri en milieu solide. • * Test en microplaques: La culture bactérienne à tester est prélevée en phase exponentielle, puis diluée au 1/500^ème dans du milieu liquide TSB frais. Chaque puits de la microplaque est rempli avec 100 µl de suspension bactérienne diluée. Dans le premier puits, 100 µl de l'échantillon de pseudopeptide à tester est ajouté à la suspension bactérienne, puis l'échantillon est dilué de 2 en 2 en transférant d'un puits à l'autre 100 µl de suspension. La lecture de la microplaque se fait en mesurant la densité optique à […] (DO600nm) après 24h d'incubation à 28°C ou 37°C selon les bactéries cibles. Connaissant la concentration en pseudopeptide de l'échantillon de départ, ce test permet de déterminer la valeur de la CMI (Concentration Minimale d'Inhibition de la croissance bactérienne). Dans ce test, la CMI correspond à la concentration de l'échantillon pour lequel la DO600nm est inférieure à celle du témoin de culture. • * Test en boîte de Pétri: La culture bactérienne à tester est prélevée en phase exponentielle, puis incorporée à 10 ml d'une gélose dite \"sous-couche\" (Agarose 1% poids/vol; NaCl 100 mM; Trypcase 0.03 % poids/vol; Tampon phosphate 10 mM pH7.4) à raison de 2.10^5 bactéries/ml. Le mélange est coulé dans une boîte de Pétri ordinaire. 9 puits d'environ 10 µl de volume sont formés dans la \"sous-couche\" à l'aide d'un embout de pipette stérile de 10 ml. Ces puits sont remplis avec une série de dilutions des pseudopeptides à tester (concentration initiale 500 µg/ml, et dilution de deux en deux jusqu'à 1,95 µg/ml). Après diffusion à température ambiante pendant 2h, une gélose dite \"sur-couche\" (Agarose 1% wt/vol; Trypcase 6 % wt/vol; Tampon phosphate 10 mM pH7.4) est ajoutée sur la sous-couche à raison de 5 à 10 ml. Après solidification, l'ensemble est mis à incuber pendant une nuit. Le diamètre d'inhibition de la culture bactérienne autour de chaque puits est mesuré en mm; il existe une relation linéaire entre le diamètre d'inhibition et le log10 de la concentration en pseudopeptide qui permet de déterminer par extrapolation la valeur de la CMI.\n(§2) Une seconde série de résultats a été obtenue en utilisant le test en microplaques vis-à-vis de bactéries nosocomiales issues de la collection du laboratoire de Bactériologie Médicale du Centre Hospitalier Universitaire de Nîmes (France). Dans cette série, seul le pseudopeptide contenu dans la fraction 8 a été testé (Tableau 5)."}, "Enterobacter aerogenes": {"tested_on": "Enterobacter aerogenes", "test": "Bacterial growth inhibition test in microplates (liquid medium), MIC, nosocomial bacteria", "conditions": "microplate test, TSB, 24h; nosocomial strain", "experimental": "as §1, §2"}, "Staphylococcus aureus [1]": {"tested_on": "Staphylococcus aureus", "test": "Bacterial growth inhibition test in microplates (liquid medium), MIC, nosocomial bacteria", "conditions": "microplate test, TSB, 24h; nosocomial strain", "experimental": "as §1, §2"}, "Enterococcus sp.": {"tested_on": "Enterococcus sp.", "test": "Bacterial growth inhibition test in microplates (liquid medium), MIC, nosocomial bacteria", "conditions": "microplate test, TSB, 24h; nosocomial strain", "experimental": "as §1, §2"}, "[2]": {"tested_on": "Stenotrophomonas maltophilia", "test": "Bacterial growth inhibition test in microplates (liquid medium), MIC, nosocomial bacteria", "conditions": "microplate test, TSB, 24h; nosocomial strain", "experimental": "as §1, §2"}, "bactériophage lambda": {"tested_on": "bactériophage lambda", "test": "Antiviral test, lysis plaque method in Top-Agar on E. coli SURE", "experimental": "L'activité antivirale des pseudopeptides selon l'invention a été démontrée vis-à-vis du bactériophage lambda. Le bactériophage λ-ZAP est naturellement lytique sur la souche E. coli SURE (Stratagène). Cette activité lytique est mesurable par la méthode des plages de lyse en gélose Top-Agar. 2 µl d'une suspension de virus à 3,5 .10^5 pfu/ml dans du tampon SM ont été mis en présence de 2 µl du pseudopeptides compris dans le pic 8 à 0,5 mg/ml dans de l'eau pure. Après 15 min d'incubation à 37°C, la suspension est mélangée à 3,5 ml de Top-Agar pré-ensemencée avec E. coli SURE à 2 .10^5 cfu/ml. La concentration de pseudopeptide dans la gélose Top-Agar est inférieure à la CMI vis-à-vis de E. coli SURE. Le mélange est coulé en boîte de Pétri puis mis à incuber à 37°C pendant 12h. Le résultat est donné dans le tableau 6."}, "Botrytis cinerea myc": {"tested_on": "Botrytis cinerea myc", "test": "Antifungal growth inhibition test in liquid medium"}, "Serratia entomophila": {"tested_on": "Serratia entomophila", "test": "Bacterial growth inhibition test in Petri dish (solid medium), MIC", "conditions": "MIC extrapolated from inhibition diameter vs log10 concentration"}, "Botrytis cinerea sp": {"tested_on": "Botrytis cinerea sp", "test": "Antifungal growth inhibition test in liquid medium"}, "Rhizoctonia solani myc": {"tested_on": "Rhizoctonia solani myc", "test": "Antifungal growth inhibition test in liquid medium"}, "Alternaria brassicae": {"tested_on": "Alternaria brassicae", "test": "Antifungal growth inhibition test in liquid medium"}, "[3]": {"tested_on": "Helminthosporium teres sp", "test": "Antifungal growth inhibition test in liquid medium"}, "Salmonella sp.": {"tested_on": "Salmonella sp.", "test": "Bacterial growth inhibition test in Petri dish (solid medium), MIC", "conditions": "MIC extrapolated from inhibition diameter vs log10 concentration", "experimental": "as §1\nUne première série de résultats a été obtenue en utilisant le test en boîte de Pétri vis-à-vis de bactéries non pathogènes issues de la collection de Travaux pratiques du laboratoire de Pathologie Comparée de l'Université de Montpellier (France). Dans cette série, les pseudopeptides des pics 5, 7, 8,10 et 11 ont été testés (Tableau 4)."}, "[4]": {"tested_on": "Staphylococcus epidermidis", "test": "Bacterial growth inhibition test in Petri dish (solid medium), MIC", "conditions": "MIC extrapolated from inhibition diameter vs log10 concentration"}, "[5]": {"tested_on": "Proteus vulgaris CIP58.60", "test": "Bacterial growth inhibition test in Petri dish (solid medium), MIC", "conditions": "MIC extrapolated from inhibition diameter vs log10 concentration"}, "Staphylococcus aureus [6]": {"tested_on": "Staphylococcus aureus", "test": "Bacterial growth inhibition test in Petri dish (solid medium), MIC", "conditions": "MIC extrapolated from inhibition diameter vs log10 concentration"}},
  "note": "Ends that are not written are not given here.",
  "data": [
    {"substance": "Composé 8: pseudopeptide du pic n° 8 de Xenorhabdus nematophilus F1; Famille 1: Lys Lys Lys Lys Lys Gly; 1066 Da; structure en Figure 2 (KKKKKG; also: pseudopeptide modifications)", "values": [
      {"measurement": "CMI", "setting": "Klebsiella pneumoniae", "value": 15, "unit": "µg/mL"},
      {"measurement": "CMI", "setting": "Pseudomonas fluorescens", "value": 3, "unit": "µg/mL"},
      {"measurement": "pourcentage d'inhibition de croissance", "setting": "Septoria tritici sp; 10 ppm", "value": 87, "unit": "%"},
      {"measurement": "pourcentage d'inhibition de croissance", "setting": "Septoria tritici sp; 20 ppm", "value": 88, "unit": "%"},
      {"measurement": "pourcentage d'inhibition de croissance", "setting": "Septoria tritici sp; 40 ppm", "value": 86, "unit": "%"},
      {"measurement": "CMI", "setting": "Pseudomonas aeruginosa", "value": "12,5 µg/ml"},
      {"measurement": "CMI", "setting": "Enterobacter aerogenes", "value": 25, "unit": "µg/mL"},
      {"measurement": "CMI", "setting": "Staphylococcus aureus [1]", "value": 25, "unit": "µg/mL"},
      {"measurement": "CMI", "setting": "Enterococcus sp.", "value": "12,5 µg/ml"},
      {"measurement": "CMI", "setting": "[2]", "value": 25, "unit": "µg/mL"},
      {"measurement": "inhibition du cycle lytique du bactériophage lambda", "setting": "bactériophage lambda; 250 µg/ml", "value": "> 95", "unit": "%"},
      {"measurement": "Nbre de pfu/boîte", "setting": "bactériophage lambda; in presence of pseudopeptide, 15 min pre-incubation at 37°C with phage, control without pseudopeptide 700 ±50", "value": "40 ± 5", "unit": "pfu/boîte"},
      {"measurement": "pourcentage d'inhibition de croissance", "setting": "Botrytis cinerea myc; 10 ppm", "value": 40, "unit": "%"},
      {"measurement": "pourcentage d'inhibition de croissance", "setting": "Botrytis cinerea myc; 20 ppm", "value": 70, "unit": "%"},
      {"measurement": "pourcentage d'inhibition de croissance", "setting": "Botrytis cinerea myc; 40 ppm", "value": 93, "unit": "%"},
      {"measurement": "CMI", "setting": "Serratia entomophila", "value": 30, "unit": "µg/mL"},
      {"measurement": "pourcentage d'inhibition de croissance", "setting": "Botrytis cinerea sp; 10 ppm", "value": 52, "unit": "%"},
      {"measurement": "pourcentage d'inhibition de croissance", "setting": "Botrytis cinerea sp; 20 ppm", "value": 95, "unit": "%"},
      {"measurement": "pourcentage d'inhibition de croissance", "setting": "Botrytis cinerea sp; 40 ppm", "value": 94, "unit": "%"},
      {"measurement": "pourcentage d'inhibition de croissance", "setting": "Rhizoctonia solani myc; 10 ppm", "value": 56, "unit": "%"},
      {"measurement": "pourcentage d'inhibition de croissance", "setting": "Rhizoctonia solani myc; 20 ppm", "value": 91, "unit": "%"},
      {"measurement": "pourcentage d'inhibition de croissance", "setting": "Rhizoctonia solani myc; 40 ppm", "value": 93, "unit": "%"},
      {"measurement": "pourcentage d'inhibition de croissance", "setting": "Alternaria brassicae; 10 ppm", "value": 82, "unit": "%"},
      {"measurement": "pourcentage d'inhibition de croissance", "setting": "Alternaria brassicae; 20 ppm", "value": 82, "unit": "%"},
      {"measurement": "pourcentage d'inhibition de croissance", "setting": "Alternaria brassicae; 40 ppm", "value": 83, "unit": "%"},
      {"measurement": "pourcentage d'inhibition de croissance", "setting": "[3]; 10 ppm", "value": 76, "unit": "%"},
      {"measurement": "pourcentage d'inhibition de croissance", "setting": "[3]; 20 ppm", "value": 94, "unit": "%"},
      {"measurement": "pourcentage d'inhibition de croissance", "setting": "[3]; 40 ppm", "value": 92, "unit": "%"},
      {"measurement": "CMI", "setting": "Salmonella sp.", "value": 30, "unit": "µg/mL"},
      {"measurement": "CMI", "setting": "[4]", "value": 30, "unit": "µg/mL"},
      {"measurement": "CMI", "setting": "[5]", "value": 100, "unit": "µg/mL"},
      {"measurement": "CMI", "setting": "Staphylococcus aureus [6]", "value": 15, "unit": "µg/mL"}
    ]}
  ]
}
